Where two headings read alike, the source gives them in different places.
Legend:
[1] = system: Key Grass and Sedge Weeds as well as Grass Crops; assay: Post-Emergent Test II (Table 6); assay type: in vivo; conditions: post-emergence, 336 h, 14 days after application; for pest or weed control at 70 g/ha: 70 g ai/ha; for pest or weed control at 140 g/ha: 140 g ai/ha
Outline: (§1)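 Visual injury ratings (0 = no injury, 100 = complete kill) were taken 14 days after treatment relative to untreated plants. Seedlings at the first or second true leaf stage received an overhead spray at 187 L/ha, and solvent-blank sprayed plants served as controls.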

[2] = system: Key Broadleaf Weed and Crop Species; assay: Post-Emergent Test II (Table 5); assay type: in vivo; conditions: post-emergence, 336 h; for pest or weed control at 70 g/ha: application rate 70 (kg ai/ha; footnote: g ai/ha); for pest or weed control at 140 g/ha: application rate 140 (kg ai/ha; footnote: g ai/ha)
Outline: as §1

[3] = CYPSS, read-out: Visual Growth Reduction (%) 14 Days After Application CYPSS
[4] = DIGSA: crabgrass (Digitaria sanguinalis), read-out: Visual Growth Reduction (%) 14 Days After Application DIGSA
[5] = ECHSS, read-out: Visual Growth Reduction (%) 14 Days After Application ECHSS
[6] = ORYSS (crop), read-out: Visual Growth Reduction (%) 14 Days After Application ORYSS
[7] = SETFA: giant foxtail (Setaria faberi), read-out: Visual Growth Reduction (%) 14 Days After Application SETFA
[8] = SORVU: grain sorghum (Sorghum vulgare), read-out: Visual Growth Reduction (%) 14 Days After Application SORVU
[9] = TRZSS (crop), read-out: Visual Growth Reduction (%) 14 Days After Application TRZSS
[10] = ZEAMX: maize, corn (Zea mays), read-out: Visual Growth Reduction (%) 14 Days After Application ZEAMX
[11] = Abutilon theophrasti, ABUTH: velvetleaf (Abutilon theophrasti), read-out: Visual Growth Reduction (%) 14 Days After Application ABUTH
[12] = Amaranthus retroflexus, AMARE: redroot pigweed (Amaranthus retroflexus), read-out: Visual Growth Reduction (%) 14 Days After Application AMARE
[13] = Brassica napus, BRSSS: oilseed rape, canola (Brassica napus), read-out: Visual Growth Reduction (%) 14 Days After Application BRSSS
[14] = Chenopodium album, CHEAL: lambsquarters (Chenopodium album), read-out: Visual Growth Reduction (%) 14 Days After Application CHEAL
[15] = Euphorbia heterophylla, EPHHL: wild poinsettia (Euphorbia heterophylla), read-out: Visual Growth Reduction (%) 14 Days After Application EPHHL
[16] = Helianthus annuus, HELAN: sunflower (Helianthus annuus), read-out: Visual Growth Reduction (%) 14 Days After Application HELAN
[17] = Viola tricolor, VIOTR: wild pansy (Viola tricolor), read-out: Visual Growth Reduction (%) 14 Days After Application VIOTR

SMILES | pest or weed control at 70 g/ha [1, 3] [%] | pest or weed control at 140 g/ha [1, 3] [%] | pest or weed control at 70 g/ha [1, 4] [%] | pest or weed control at 140 g/ha [1, 4] [%] | pest or weed control at 70 g/ha [1, 6] [%] | pest or weed control at 140 g/ha [1, 6] [%] | pest or weed control at 70 g/ha [1, 8] [%] | pest or weed control at 140 g/ha [1, 8] [%] | pest or weed control at 70 g/ha [1, 9] [%] | pest or weed control at 140 g/ha [1, 9] [%] | pest or weed control at 70 g/ha [1, 10] [%] | pest or weed control at 140 g/ha [1, 10] [%] | pest or weed control at 70 g/ha [2, 11] [%] | pest or weed control at 140 g/ha [2, 11] [%] | pest or weed control at 70 g/ha [2, 12] [%] | pest or weed control at 140 g/ha [2, 12] [%] | pest or weed control at 70 g/ha [2, 13] [%] | pest or weed control at 140 g/ha [2, 13] [%] | pest or weed control at 70 g/ha [2, 14] [%] | pest or weed control at 140 g/ha [2, 14] [%] | further results
COC(=O)c1nc(-c2ccc(Cl)c(F)c2C(F)F)cc(N)c1Cl [Compound 53, methyl 4-amino-3-chloro-6-(4-chloro-2-(difluoromethyl)-3-fluorophenyl)picolinate] | 0 to 29 | 0 to 29 | 0 to 29 | 0 to 29 | 0 to 29 | 0 to 29 | 0 to 29 | 0 to 29 | 0 to 29 | 0 to 29 | 0 to 29 | 0 to 29 | 85 to 94 | 0 to 29 | 95 to 100 | 95 to 100 | 45 to 59 | 45 to 59 | 95 to 100 | 95 to 100 | pest or weed control at 70 g/ha [1, 5]: 0 to 29%; pest or weed control at 140 g/ha [1, 5]: 0 to 29%; pest or weed control at 70 g/ha [1, 7]: 0 to 29%; pest or weed control at 140 g/ha [1, 7]: 0 to 29%; pest or weed control at 70 g/ha [2, 15]: 0 to 29%; pest or weed control at 140 g/ha [2, 15]: 0 to 29%; pest or weed control at 70 g/ha [2, 16]: 60 to 74%; pest or weed control at 140 g/ha [2, 16]: 75 to 84%; pest or weed control at 70 g/ha [2, 17]: 0 to 29%; pest or weed control at 140 g/ha [2, 17]: 0 to 29%
COC(=O)c1nc(-c2ccc(C(F)(F)F)nc2OC)c(F)c(N)c1Cl [Compound 44, methyl 4-amino-5-chloro-3-fluoro-2′-methoxy-6′-(trifluoromethyl)-2,3′-bipyridine-6-carboxylate] | 0 to 29 | 0 to 29 | 0 to 29 | 0 to 29 | 0 to 29 | 0 to 29 | 0 to 29 | 0 to 29 | 0 to 29 | 0 to 29 | 0 to 29 | 0 to 29 | 45 to 59 | 75 to 84 | 0 to 29 | 95 to 100 | 45 to 59 | 60 to 74 | 85 to 94 | 85 to 94 | pest or weed control at 70 g/ha [1, 7]: 0 to 29%; pest or weed control at 140 g/ha [1, 7]: 0 to 29%; pest or weed control at 70 g/ha [2, 15]: 0 to 29%; pest or weed control at 140 g/ha [2, 15]: 0 to 29%; pest or weed control at 70 g/ha [2, 16]: 85 to 94%; pest or weed control at 140 g/ha [2, 16]: 85 to 94%; pest or weed control at 70 g/ha [2, 17]: 0 to 29%; pest or weed control at 140 g/ha [2, 17]: 0 to 29%
COC(=O)c1nc(-c2ccc(C(F)(F)F)c(F)c2C)cc(N)c1Cl [Compound 9, methyl 4-amino-3-chloro-6-(3-fluoro-2-methyl-4-(trifluoromethyl)phenyl)picolinate] | 95 to 100 | 95 to 100 | 0 to 29 | 0 to 29 | 0 to 29 | 0 to 29 | 0 to 29 | 30 to 44 | 0 to 29 | 0 to 29 | 0 to 29 | 30 to 44 | 85 to 94 | 85 to 94 | 0 to 29 | 0 to 29 | 0 to 29 | 0 to 29 | 85 to 94 | 95 to 100 | pest or weed control at 70 g/ha [1, 5]: 0 to 29%; pest or weed control at 140 g/ha [1, 5]: 0 to 29%; pest or weed control at 70 g/ha [2, 15]: 95 to 100%; pest or weed control at 70 g/ha [2, 16]: 0 to 29%; pest or weed control at 140 g/ha [2, 16]: 85 to 94%; pest or weed control at 70 g/ha [2, 17]: 0 to 29%; pest or weed control at 140 g/ha [2, 17]: 0 to 29%
COC(=O)c1nc(-c2ccc(Br)nc2)c(F)c(N)c1Cl [Compound 22, methyl 4-amino-6′-bromo-5-chloro-3-fluoro-[2,3′-bipyridine]-6-carboxylate] | 95 to 100 | 95 to 100 | 85 to 94 | 85 to 94 | 30 to 44 | 0 to 29 | 95 to 100 | 95 to 100 | 85 to 94 | 95 to 100 | 85 to 94 | 95 to 100 | 95 to 100 | 95 to 100 | 95 to 100 | 95 to 100 | 95 to 100 | 95 to 100 | 95 to 100 | 95 to 100 | pest or weed control at 70 g/ha [1, 5]: 85 to 94%; pest or weed control at 140 g/ha [1, 5]: 95 to 100%; pest or weed control at 70 g/ha [1, 7]: 85 to 94%; pest or weed control at 140 g/ha [1, 7]: 85 to 94%; pest or weed control at 70 g/ha [2, 15]: 95 to 100%; pest or weed control at 140 g/ha [2, 15]: 95 to 100%; pest or weed control at 70 g/ha [2, 16]: 85 to 94%; pest or weed control at 140 g/ha [2, 16]: 95 to 100%; pest or weed control at 70 g/ha [2, 17]: 95 to 100%; pest or weed control at 140 g/ha [2, 17]: 95 to 100%

From patent US10765114B2, “4-amino-6-(pyridyl and 2-substitutedphenyl)-picolinates and 6-amino-2-(pyridyl and 2-substitutedphenyl)-pyrimidine-4-carboxylates and their use as herbicides” (Dow AgroSciences LLC, priority 2013, dated 2020)
